Results: patent publication US9351491B2, “Inhibition and dispersion of biofilms in plants with imidazole-triazole derivatives” (priority 2008, dated 2016)
Structures can show the parent of a compound that is named as a salt.

What was measured:
[1] = tested on: Xanthomonas strains Xcv 135; assay: Crystal violet biofilm inhibition (attachment) assay on PVC microtiter wells; type: cell-based; details: 28° C., 6 hours, static
Protocol: A Standard Crystal Violet reporter assay is employed to assess the effect of compounds from the 2-amino on the formation of biofilms. Among others, the following strains are tested:
Bacteria are allowed to form biofilms in a multi-well plate in the absence or presence of one or more compounds. Planktonic (or free growing) bacteria are then removed, wells washed vigorously, and crystal violet added. Crystal violet stains the remaining bacteria which, following ethanol solubilization, is quantitated by spectrophotometry (A540). Time-dependent and concentration-dependent analysis of each compound are performed.
Biofilm formation on PVC microtiter wells was accomplished using Xanthomonas strains Xcv 135 (known to infect peppers and tomatoes) and Xcv 5 (known to infect tomatoes but not peppers) as models. The Starting Optical Density (OD at 600 nm) for biofilm attachment assay was 0.55, the temperature for this assay was 28° C., the duration of incubation was 6 hours under, and the assay was static.
Biofilm inhibition results are as follows for screens with Xcv 135. The Xcv 5 strain is tested in the same manner.

C. albicans = assay: Growth curve / colony count analysis, C. albicans; type: cell-based, Candida albicans; details: 100 μM (data not shown)
[2] = tested on: Candida albicans biofilms; assay: Inhibition of C. albicans biofilm formation, crystal violet reporter assay; type: cell-based; details: 24 h, read-out: inhibition of C. albicans biofilm formation
Protocol: It was screened at 100 μM for its ability to inhibit to the formation of C. albicans biofilms using a crystal violet reporter assay. Briefly, biofilms were allowed to form for 24 hours in a 96-well microtiter plate in the absence or presence of 100 μM of the compound. The wells were subsequently washed thoroughly with water to remove free-floating and loosely adherent fungus, and then treated with crystal violet. Crystal violet stains the remaining surface attached fungus (i.e. the biofilm), which following solublization, can be quantified by spectrophotometry (A540).
Each member of the pilot library was assayed at 100 μM for its ability to inhibit the formation of C. albicans biofilms using the crystal violet reporter assay.
Procedure to Determine the Inhibitory Effect of Test Compounds on C. albicans, C. neoformans and a Mixed S. epidermidis/C. albicans Biofilm Formation:
Inhibition assays were performed by taking an overnight culture of yeast or yeast/bacteria strain and subculturing it at an OD600 of 0.05 into YPD (Yeast extract, peptone and dextrose (BD 242820)) media for the yeast alone or tryptic soy broth for the S. epidermidis/C. albicans. […] Biofilm inhibition was quantitated by measuring the OD540 of each well in which a negative control lane wherein no biofilm was formed served as a background and was subtracted out.

[3] = tested on: bacterial spot (caused by the bacterium Xanthomonas euvesicatoria) of pepper, copper-resistant strains; assay: Field test in pepper plants inoculated with Xanthomonas euvesicatoria (bacterial spot); type: in vivo
Protocol: To test the effects of the triazole derivatives for plant biofilm inhibition activity, the compound of Formula (II)(a)(5)(D) was used as an exemplary compound (the “biofilm inhibitor/disperser” or “BFI” in the text hereinafter of Example 4).
The compound was evaluated under field conditions to determine whether it controls or enhances control of bacterial spot (caused by the bacterium Xanthomonas euvesicatoria) of pepper when applied alone or in tank-mixtures with a copper (Kocide 3000), an antibiotic (GWN-9350, gentamicin), or a putative plant defense activator (Prophyt). Tests were performed April-July 2008 at the North Carolina Agricultural Research Service Sandhills Research Station, Montgomery County.
EXPERIMENTAL DESIGN and TREATMENT APPLICATIONS: Each treatment consisted of two 7-plant rows running east-west replicated in a four-block completely randomized design. Each 7-plant row was 10.5 ft×2 ft. This area was used to calculate the quantity of spray material extrapolated for a per acre basis. Plants of bell pepper cultivar ‘X3R-Camelot’ were transplanted to the field on Apr. 24, 2008. On May 6, two plants in the south row of each plot of each treatment were inoculated with a suspension of copper-resistant strains of the bacterial pathogen. These plants were destined to serve as the inoculum source for each plot. Each of the spray test materials was mixed in 1.5 liters of water and applied using a backpack sprayer by making a single pass on each side of the plant row. Treatments were applied weekly starting immediately after the plants had been inoculated May 6 followed by 7 additional weekly sprays for a total of 8 applications through June 24.
DATA: Ratings of foliar disease were started May 22, when symptoms were observed on the inoculated plants and continued weekly through June 25. Disease was most severe on the inoculated plants and then spread to the non-inoculated plants. Data from these two groups (inoculated plants and the non-inoculated) were evaluated separately. The results are expressed as disease progress over time using the calculated Area Under the Disease Progress Curve (AUDPC). Two fruit harvests were done; July 1 and 8. Because there had been plant loss in some plots, the number of plants per plot was counted and yields (number of fruit and weight) were calculated and are reported on a per plant basis per treatment.

[4] = two fruit harvests, per plant basis

Structure (SMILES)	% Inhibition at 20 μM (vs. Xcv 135) [1]	growth curves: anti-biofilm activity fungicidal or not (C. albicans)	inhibition at 100 µM [2]	Mean AUDPC for entire plot ([3]; foliar disease, 0-9 rating scale, AUDPC, entire plot, 8 weekly sprays)	Mean AUDPC for inoculated plants ([3]; foliar disease, 0-9 rating scale, Area Under the Disease Progress Curve, inoculated bell pepper plants, 8 weekly sprays, rate/acre as in treatment line)	Mean fruit yield (lb)/plant [3, 4]	Mean number pepper fruit/plant [3, 4]
Nc1nc(CCc2cn(CCc3c[nH]c4ccccc34)nn2)c[nH]1 [Formula (II)(i)(a)(2)(J)]	0%	–	–	–	–	–	–
C/C(=C\c1ccccc1)Cn1cc(CCCCCCc2c[nH]c(N)n2)nn1 [Formula (II)(a)(6)(D), 4-{6-[1-(2-Methyl-3-phenyl-allyl)-1H-[1,2,3]triazol-4-yl]-hexyl}-1H-imidazol-2-ylamine hydrochloride]	85%	–	–	–	–	–	–
C/C(=C\c1ccccc1)Cn1cc(CCCCCc2c[nH]c(N)n2)nn1 [Formula (II)(a)(5)(D), 4-{5-[1-(2-Methyl-3-phenyl-allyl)-1H-[1,2,3]triazol-4-yl]-pentyl}-1H-imidazol-2-ylamine hydrochloride]	86%	non-fungicidal	12%	42 a	113 b	1.46 b lb	4.8 b
